According to patent publication US11504367B2, “Compounds and methods for treating oxalate-related diseases” (OxaluRx, Inc., priority 2019, dated 2022):

biological target: recombinant full-length human hydroxyacid oxidase 1 (HAO1), the equivalents of hGOX (Homo sapiens (Human), UniProt Q9UJM8); test: In-vitro human glycolate oxidase (hGOX) assay (Amplex red fluorescence); format: biochemical; conditions: 6 nM recombinant human GO, 85 μM glycolate, 10 min preincubation
Experimental: The in-vitro glycolate oxidase assay was performed using recombinant full-length human hydroxyacid oxidase 1 (HAO1), the equivalents of hGOX. […] Purified HAO1 was dissolved in assay buffer consisting of 10 mM NaCl, 110 mM KCl, 2 mM MgCl2, 50 mM HEPES (pH 7.4), and 0.01% Triton™ X-100.
The plates were incubated for 10 min at room temperature, at which point Amplex red reagent (50 μM) was added.
The fluorescence intensity signal was measured on a VariosKan LUX instrument using an excitation of 560 nm and an emission of 590 nm. The IC50 values were calculated using Graphpad Prism. The fluorescence signal of wells containing only DMSO was defined as 100% GO activity, while the fluorescence signal without the glycolate substrate was defined as 0% GO activity.

recombinant full-length human hydroxyacid oxidase 1 (HAO1), the equivalents of hGOX, sequence (Q9UJM8 whole entry): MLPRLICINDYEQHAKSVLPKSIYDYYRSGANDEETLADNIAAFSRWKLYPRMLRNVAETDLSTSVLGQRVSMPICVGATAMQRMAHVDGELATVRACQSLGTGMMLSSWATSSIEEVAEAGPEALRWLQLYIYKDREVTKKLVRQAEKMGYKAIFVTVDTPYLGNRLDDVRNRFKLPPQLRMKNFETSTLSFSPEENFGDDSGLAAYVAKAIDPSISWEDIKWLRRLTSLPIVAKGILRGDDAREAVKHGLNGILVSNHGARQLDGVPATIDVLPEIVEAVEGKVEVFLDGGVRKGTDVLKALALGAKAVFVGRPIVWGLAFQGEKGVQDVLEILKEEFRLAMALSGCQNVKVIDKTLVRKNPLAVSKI

IC50 [nM] | SMILES
90 | C#Cc1ccc(Oc2[nH]nnc2C(=O)O)cc1 [Example 2, 5-(4-Ethynylphenoxy)-1H-1,2,3-triazole-4-carboxylic Acid]
4 | Cn1cc(C#Cc2ccc(Oc3[nH]nnc3C(=O)O)cc2)cn1 [Example 220, 5-(4-(2-(1-Methyl-1H-pyrazol-4-yl)ethynyl)phenoxy)-1H-1,2,3-triazole-4-carboxylic Acid]
23 | O=C(O)c1nn[nH]c1Oc1ccc(C#CC(F)(F)F)cc1 [Example 335, 5-(4-(3,3,3-Trifluoroprop-1-ynyl)phenoxy)-1H-1,2,3-triazole-4-carboxylic Acid]
3 | CS(=O)(=O)c1cccc(C#Cc2ccc(Oc3[nH]nnc3C(=O)O)cc2)c1 [Example 254, 5-(4-(2-(3-(Methylsulfonyl)phenyl)ethynyl)phenoxy)-1H-1,2,3-triazole-4-carboxylic Acid]
10 | O=C(O)c1nn[nH]c1Oc1ccc(C#Cc2ccccn2)cc1 [Example 308, 5-(4-(2-(Pyridin-2-yl)ethynyl)phenoxy)-1H-1,2,3-triazole-4-carboxylic Acid]
7 | O=C(O)c1nn[nH]c1Oc1ccc(C#Cc2ccccc2)cc1 [Example 138, 5-(4-(2-Phenylethynyl)phenoxy)-1H-1,2,3-triazole-4-carboxylic Acid]
1 | N#Cc1ccc(C#Cc2ccc(Oc3[nH]nnc3C(=O)O)cc2F)cc1 [Example 269, 5-(4-((4-Cyanophenyl)ethynyl)-3-fluorophenoxy)-1H-1,2,3-triazole-4-carboxylic Acid]
2 | COc1cccc(C#Cc2ccc(Oc3[nH]nnc3C(=O)O)cc2)c1 [Example 286, 5-(4-(2-(3-Methoxyphenyl)ethynyl)phenoxy)-1H-1,2,3-triazole-4-carboxylic Acid]
9 | O=C(O)c1nn[nH]c1Oc1ccc(C#CC2CCCCC2)cc1 [Example 36, 5-(4-(2-Cyclohexylethynyl)phenoxy)-1H-1,2,3-triazole-4-carboxylic Acid]
1 | O=C(O)c1nn[nH]c1Oc1ccc(C#Cc2cccc(F)c2)cc1 [Example 278, 5-(4-(2-(3-Fluorophenyl)ethynyl)phenoxy)-1H-1,2,3-triazole-4-carboxylic Acid]
25 | O=C(O)c1nn[nH]c1Oc1ccc(C#Cc2ncccn2)cc1 [Example 336, 5-(4-(2-(Pyrimidin-2-yl)ethynyl)phenoxy)-1H-1,2,3-triazole-4-carboxylic Acid]
12 | CC#Cc1ccc(Oc2[nH]nnc2C(=O)O)cc1 [Example 5, 5-(4-(Prop-1-ynyl)phenoxy)-1H-1,2,3-triazole-4-carboxylic Acid]
0.4 | O=C(O)c1nn[nH]c1Oc1ccc(C#Cc2ccc(Cl)cc2)cc1 [Example 290, 5-(4-(2-(4-Chlorophenyl)ethynyl)phenoxy)-1H-1,2,3-triazole-4-carboxylic Acid]
3 | COc1cccc(C#Cc2ccc(Oc3[nH]nnc3C(=O)O)cc2)c1 [Example 281, 5-(4-(2-(3-Methoxyphenyl)ethynyl)phenoxy)-1H-1,2,3-triazole-4-carboxylic Acid]
4 | COc1ccc(C#Cc2ccc(Oc3[nH]nnc3C(=O)O)cc2)cc1 [Example 280, 5-(4-(2-(4-Methoxyphenyl)ethynyl)phenoxy)-1H-1,2,3-triazole-4-carboxylic Acid]
1 | O=C(O)c1nn[nH]c1Oc1ccc(C#Cc2ccc3[nH]ncc3c2)cc1 [Example 108, 5-(4-(2-(1H-Indazol-5-yl)ethynyl)phenoxy)-1H-1,2,3-triazole-4-carboxylic Acid]
7 | O=C(O)c1nn[nH]c1Oc1ccc(C#Cc2cnccn2)cc1 [Example 337, 5-(4-(2-(Pyrazin-2-yl)ethynyl)phenoxy)-1H-1,2,3-triazole-4-carboxylic Acid]
2 | O=C(O)c1nn[nH]c1Oc1ccc(C#Cc2cccc3[nH]ncc23)cc1 [Example 327, 5-(4-(2-(1H-Indazol-4-yl)ethynyl)phenoxy)-1H-1,2,3-triazole-4-carboxylic Acid]
2 | Cn1ccc(C#Cc2ccc(Oc3[nH]nnc3C(=O)O)cc2)cc1=O [Example 256, 4-(4-((1-Methyl-2-oxo-1,2-dihydropyridin-4-yl)ethynyl)phenoxy)-1H-1,2,3-triazole-5-carboxylic Acid]
5 | O=C(O)c1nn[nH]c1Oc1ccc(C#CCc2ccccc2)cc1 [Example 348, 5-(4-(3-Phenylprop-1-ynyl)phenoxy)-1H-1,2,3-triazole-4-carboxylic Acid]
3 | O=C(O)c1nn[nH]c1Oc1ccc(C#CCc2ccc(F)cc2)cc1 [Example 353, 5-(4-(3-(4-fluorophenyl)prop-1-ynyl)phenoxy)-1H-1,2,3-triazole-4-carboxylic Acid]
20 | O=C(O)c1nn[nH]c1Oc1ccc(C#Cc2ncc[nH]2)cc1 [Example 331, 5-(4-(2-(1H-Imidazol-2-yl)ethynyl)phenoxy)-1H-1,2,3-triazole-4-carboxylic Acid]

Further lines, the molecule ahead of its results:

SMILES | IC50 [nM]
O=C(O)c1nn[nH]c1Oc1cccc(C#Cc2ccc3cn[nH]c3c2)c1 [Example 330, 5-(3-(2-(1H-Indazol-6-yl)ethynyl)phenoxy)-1H-1,2,3-triazole-4-carboxylic Acid] | 1
O=C(O)c1nn[nH]c1Oc1cccc(C#Cc2ncc[nH]2)c1 [Example 332, 5-(3-(2-(1H-Imidazol-2-yl)ethynyl)phenoxy)-1H-1,2,3-triazole-4-carboxylic Acid] | 7
CCOC(=O)c1nn[nH]c1[S+]([O-])c1cccc(C#CCC(C)C)c1 (stereo not drawn) [Example 373, Ethyl 5-(3-(4-methylpent-1-ynyl)phenylsulfinyl)-1H-1,2,3-triazole-4-carboxylate] | > 1000
Cc1[nH]nc(Oc2cccc(C#CCC3CC3)c2)c1C(=O)O [Example 359, 3-(3-(3-Cyclopropylprop-1-ynyl)phenoxy)-5-methyl-1H-pyrazole-4-carboxylic Acid] | > 1000
O=C(O)c1nn[nH]c1Oc1cccc(C#Cc2cccnn2)c1 [Example 340, 5-(3-(2-(Pyridazin-3-yl)ethynyl)phenoxy)-1H-1,2,3-triazole-4-carboxylic Acid] | 3
O=C(O)c1nn[nH]c1Oc1ccc(C#Cc2ccccc2)cc1F [Example 260, 5-(2-Fluoro-4-(2-phenylethynyl)phenoxy)-1H-1,2,3-triazole-4-carboxylic Acid] | 5
Cc1[nH]nc(Oc2ccc(C#CCC3CC3)cc2)c1C(=O)O [Example 361, 3-(4-(3-Cyclopropylprop-1-ynyl)phenoxy)-5-methyl-1H-pyrazole-4-carboxylic Acid] | > 1000
O=C(O)c1nn[nH]c1Oc1ccc(F)c(C#Cc2ccccc2)c1 [Example 259, 5-(4-Fluoro-3-(2-phenylethynyl)phenoxy)-1H-1,2,3-triazole-4-carboxylic Acid] | 1
Cn1ncc2c(C#Cc3ccc(Oc4[nH]nnc4C(=O)O)cc3)cccc21 [Example 314, 5-(4-(2-(1-Methyl-1H-indazol-4-yl)ethynyl)phenoxy)-1H-1,2,3-triazole-4-carboxylic Acid] | 3
CCOC(=O)c1nn[nH]c1S(=O)(=O)c1cccc(C#CCC(C)C)c1 [Example 375, Ethyl 5-(3-(4-methylpent-1-ynyl)phenylsulfonyl)-1H-1,2,3-triazole-4-carboxylate] | > 1000
CS(=O)(=O)c1cccc(C#Cc2ccc(Oc3[nH]nnc3C(=O)O)cc2F)c1 [Example 273, 5-(3-Fluoro-4-(2-(3-(methylsulfonyl)phenyl)ethynyl)phenoxy)-1H-1,2,3-triazole-4-carboxylic Acid] | 2
Cn1ncc2cc(C#Cc3cccc(Oc4[nH]nnc4C(=O)O)c3)ccc21 [Example 317, 5-(3-(2-(1-Methyl-1H-indazol-5-yl)ethynyl)phenoxy)-1H-1,2,3-triazole-4-carboxylic Acid] | 2
O=C(O)c1nn[nH]c1Oc1cccc(C#Cc2ccc(Cl)cc2)c1 [Example 292, 5-(3-(2-(4-Chlorophenyl)ethynyl)phenoxy)-1H-1,2,3-triazole-4-carboxylic Acid] | 2
O=C(O)c1nn[nH]c1Oc1cccc(C#Cc2cccc(F)c2)c1 [Example 279, 5-(3-(2-(3-Fluorophenyl)ethynyl)phenoxy)-1H-1,2,3-triazole-4-carboxylic Acid] | 2
CS(=O)(=O)c1cccc(C#Cc2cc(F)cc(Oc3[nH]nnc3C(=O)O)c2)c1 [Example 275, 5-(3-Fluoro-5-(2-(3-(methylsulfonyl)phenyl)ethynyl)phenoxy)-1H-1,2,3-triazole-4-carboxylic Acid] | 3
Cn1cc(C#Cc2cccc(Oc3[nH]nnc3C(=O)O)c2)ccc1=O [Example 209, 4-(3-((1-Methyl-6-oxo-1,6-dihydropyridin-3-yl)ethynyl)phenoxy)-1H-1,2,3-triazole-5-carboxylic Acid] | 8
O=C(O)c1nn[nH]c1Oc1cccc(C#Cc2cn[nH]c2)c1 [Example 320, 5-(3-(2-(1H-Pyrazol-4-yl)ethynyl)phenoxy)-1H-1,2,3-triazole-4-carboxylic Acid] | 6
Cc1cccc(C#Cc2cccc(Oc3[nH]nnc3C(=O)O)c2)n1 [Example 294, 5-(3-(2-(6-Methylpyridin-2-yl)ethynyl)phenoxy)-1H-1,2,3-triazole-4-carboxylic Acid] | 3
O=C(O)c1nn[nH]c1Oc1cccc(C#Cc2cccc3[nH]ncc23)c1 [Example 328, 5-(3-(2-(1H-Indazol-4-yl)ethynyl)phenoxy)-1H-1,2,3-triazole-4-carboxylic Acid] | 1
O=C(O)c1nn[nH]c1Cc1ccc(C#CCC2CC2)cc1 [Example 364, 5-(4-(3-Cyclopropylprop-1-ynyl)benzyl)-1H-1,2,3-triazole-4-carboxylic Acid] | 94
